The text below walks through data of ChEMBL document CHEMBL6177973, “A Novel Compound 3a-M1, from Metabolites of Sinomenine Derivative 3a, Exerts Potent Anti-Aplastic Anemia Activity via IP3R/ORAI-Mediated CTL Ferroptosis” (J Med Chem, 2025).

Activity calls are given as the source filed them. The rule behind the calls is not given here.

One series has as its system NRK-52E. As to the kind of experiment: Cytotoxicity against rat NRK-52E cells assessed as inhibition of cell viability incubated for 72 hrs by CCK8 assay. The series is classed as functional, cell-based.
Series [1] has as its system Mus musculus. As to the kind of experiment: Anti-aplastic anemia activity in BALB/c mouse model of immune-mediated bone marrow failure assessed as increase in hemoglobin level at 10 mg/kg, po treated for 14 days. The format is functional, organism-based. Particulars: time 14.0 day.
Series [2] has as its system Mus musculus. Description: Anti-aplastic anemia activity in BALB/c mouse model of immune-mediated bone marrow failure assessed as decrease in abnormal proportion of lymphocytes in bone marrow at 10 mg/kg, po treated for 14 days by H and E staining based analysis. The series is classed as functional, organism-based. Particulars: time 14.0 day.
Series [3] has as its system CTLL-2. As to the kind of experiment: Induction of ferroptosis in mouse CTLL-2 cells assessed as decrease in GSH level incubated for 16 hrs. The format is functional, cell-based. Particulars: dose 7.5-30 µM.
The test system of series [4] is CTLL-2. As to the kind of experiment: Induction of ferroptosis in IL-2-stimulated mouse CTLL-2 cells assessed as increase in pMEK level at 30 uM incubated for 6 hrs followed by Fer-1 addition measured after 10 hrs by Western blot analysis. The series is classed as functional, cell-based. Particulars: time 16.0 hrs.
For series [5], the system named is Mus musculus. As to the kind of experiment: Anti-aplastic anemia activity in BALB/c mouse model of immune-mediated bone marrow failure assessed as restoration of nucleated to red blood cell ratio in bone marrow at 10 mg/kg, po treated for 14 days by H and E staining based analysis. The series is classed as functional, organism-based. Particulars: time 14.0 day.

The subject of series [6] is CTLL-2. As to the kind of experiment: Induction of ferroptosis in mouse CTLL-2 cells assessed as increase in ROS level incubated for 16 hrs by DCFH-DA staining based flow cytometry. The format is functional, cell-based. Particulars: dose 7.5-30 µM.
Series [7] has as its system Mus musculus. Description: Anti-aplastic anemia activity in C57BL/6J mouse model of immune-mediated bone marrow failure assessed as decrease in histopathological change in bone marrow treated intragastrically once daily for 21 days by H and E staining based analysis. The format is functional, organism-based. Particulars: dose 5-15 mg/kg, route ig, time 21.0 day.
The test system of series [8] is CTLL-2. Description: Induction of ferroptosis in mouse CTLL-2 cells assessed as increase in intracellular Ca2+ concentration at 10 uM incubated for 45 mins in presence of 2-APB by Fluo-4 AM dye based analysis. The series is classed as functional, cell-based.
The subject of series [9] is Mus musculus. Description: Anti-aplastic anemia activity in C57BL/6J mouse model of immune-mediated bone marrow failure assessed as decrease in ratio of CD8+ to CD4+ T cells at 5 to 15 mg/kg, IG qd treated for 12 days by flow cytometry. The series is classed as functional, organism-based. Particulars: dose 5-15 mg/kg, time 12.0 day. Background: In flow cytometry, cells or beads pass a laser one at a time.

Series [10] relates to CTLL-2. Description: Induction of ferroptosis in mouse CTLL-2 cells assessed as increase in pMEK level at 7.5 to 30 uM incubated for 16 hrs by Western blot analysis. The format is functional, cell-based. Particulars: dose 7.5-30 µM. On the technique in general: Immunoblotting shows a protein as a band on a membrane.
The nature of series [11]: Drug metabolism in rat plasma assessed as hydrolyzation/demethylation/hydroxylation-mediated metabolite formation at 50 mg/kg, po measured for 24 hrs by HRMS analysis. The series is classed as ADME, organism-based. Particulars: in vivo.
Series [12] in a line: Drug metabolism in rat plasma assessed as double hydrolyzation-mediated metabolite formation at 50 mg/kg, po measured for 24 hrs by HRMS analysis. The format is ADME, organism-based. Particulars: in vivo.
Series [13] is described as follows: Drug metabolism in mouse kidney assessed as cinnamic acid metabolite formation at 50 mg/kg, po measured for 0.083 to 8 hrs by HPLC analysis. The series is classed as ADME, organism-based. Particulars: in vivo, time 0.083-8 hrs.
Series [14] can be described thus: Stability in mouse small intestine assessed as compound remaining at 50 mg/kg, po measured for 0.083 to 8 hrs by HPLC analysis. The series is classed as ADME, organism-based. Particulars: in vivo, time 0.083-8 hrs.
Series [15] in a line: Stability in mouse thymus assessed as compound remaining at 50 mg/kg, po measured for 0.083 to 8 hrs by HPLC analysis. The series is classed as ADME, organism-based. Particulars: in vivo, time 0.083-8 hrs.
Series [16] is described as follows: Drug metabolism in mouse liver assessed as (4bR,9S)-1-(hydroxymethyl)-3,7-dimethoxy-11-methyl-6-oxo-6,8a,9,10-tetrahydro-5H-9,4b-(epiminoethano)phenanthren-4-yl cinnamate metabolite formation at 50 mg/kg, po measured for 0.083 to 8 hrs by HPLC analysis. The series is classed as ADME, organism-based. Particulars: in vivo, time 0.083-8 hrs.
The nature of series [17]: Drug metabolism in mouse kidney assessed as (4bR,9S)-1-(hydroxymethyl)-3,7-dimethoxy-11-methyl-6-oxo-6,8a,9,10-tetrahydro-5H-9,4b-(epiminoethano)phenanthren-4-yl cinnamate metabolite formation at 50 mg/kg, po measured for 0.083 to 8 hrs by HPLC analysis. Particulars: in vivo, time 0.083-8 hrs. The series is classed as ADME, organism-based.

Usually IC50 stands for the concentration at which inhibition is half-maximal. Consider `COC1=C[C@@H]2[C@@H]3Cc4c(CO)cc(OC)c(OC(=O)/C=C/c5ccccc5)c4[C@]2(CCN3C)CC1=O`, for which the IC50 in the series with NRK-52E worked out at 705 µM. Also, the result in the series with Mus musculus [1], in the series on Mus musculus [2], in the series with Mus musculus [5], in the series on Mus musculus [9] and in the series on CTLL-2 [10] was Active. For the same molecule, the Activity entry in the series with CTLL-2 [3], with CTLL-2 [6] and with Mus musculus [7] was “Dose-dependent-effect” each time. For the same molecule, the result in the series with CTLL-2 [4] and in the series with CTLL-2 [8] was inactive.

On to `COC1=C[C@@H]2[C@@H]3Cc4c(COC(=O)/C=C/c5ccccc5)cc(OC)c(OC(=O)/C=C/c5ccccc5)c4[C@]2(CCN3C)CC1=O`, for which the Drug metabolism result in series [11], in [12], in [13], in series [16] and in series [17] was “metabolite_detected” in each case. For the same molecule, the Stability entry in [14] is reported as “Stable”; in [15], “Unstable”.
